According to patent US20250129083A1, “IMIDAZOTETRAZINE COMPOUNDS AND TREATMENT OF TMZ-RESISTANT CANCERS” (THE BOARD OF TRUSTEES OF THE UNIVERSITY OF ILLINOIS, priority 2022, published 2025):
Like-named read-outs stand apart in the source and are kept apart here.

Key:
[1] = tested on: genomic DNA of D54 cells; assay: Quantitation of O6-guanine DNA adducts in cells, D54; format: cell-based; details: MGMT-negative; LC-MS/MS
Procedure: Importantly, because CPZ was designed to release a different active species than TMZ, the alkylation pattern in a cellular context is likely different. Therefore, to assess if alkylation still occurs with CPZ, a DNA alkylation assay was performed. GL261 cells were treated with 100, 300, or 500 μM TMZ or CPZ for 8 hours after which the cells were harvested and genomic DNA was extracted and subsequently hydrolyzed to constituent deoxyribonucleosides. LC-MS/MS analysis was employed to quantify the amount of O^6-methyl-2′-deoxyguanosine (O^6-Me-dG) or O^6-propargylated-2′-O^6-deoxyguanosine (O^6-Prop-dG) in each sample.
Quantitation of O^6-guanine DNA Adducts in Cells. GL261, A172, or D54 cells were plated at 1×10^6 c/w in a 6-well plate before they were treated with compound at the indicated concentration (1% final concentration DMSO). After incubation for the indicated time, the cells were harvested and pelleted. Genomic DNA was extracted using the DNeasy Blood & Tissue Kit (Qiagen, ID: 69504). DNA was then precipitated using the following procedure: 1/10 v/v […] sodium acetate (pH 5.2) and 2.5× v/v ethanol was added to each sample which was then kept at −80° C. for 1 h. […] Hydrolyzed samples were then submitted for LC-MS/MS quantitation along with a synthetic standard. Samples were analyzed with a 5500 QTRAP LC/MS/MS system (AB Sciex) with a 1200 series HPLC system (Agilent).

[2] = tested on: expanded panel of GBM cell lines with or without MGMT expression; assay: Cell viability in expanded panel of GBM cell lines; format: cell-based; details: for IC50: 168 h, 7 day
Procedure: FIG. 1A-C. Selection and evaluation of MGMT-independent imidazotetrazines. (A) IC50 values (M, 7 days) of TMZ and compound 10 in an expanded panel of GBM cell lines. Cell viability was assessed via the Alamar Blue assay, n≥3, error is SEM. (B) Hydrolytic stability of TMZ at pH 7, 7.4, and 8. Percentage of prodrug remaining was quantified by HPLC, n≥2. (C) Hydrolytic stability of compound 10 at pH 7, 7.4, and 8. Percentage of prodrug remaining was quantified by HPLC, n≥2.
FIG. 2A-F. (A) 7 day IC50 values (M) of compound 10 and CPZ in an expanded panel of GBM cell lines. Cell viability was assessed via the Alamar Blue assay, n≥3, error is SEM. (B-E) 7 day dose-response curves of TMZ and CPZ in cell lines with variable MGMT and MMR status. Error is SEM, n≥3. (F) Killing kinetics of CPZ compared to TMZ in the U87 cell line. Cells were treated with compound once and viability was assessed every 24 hours via Alamar Blue assay. Error is SEM, n≥2.
Cell Viability Assays. Cells were harvested, seeded in a 96-well plate and allowed to adhere. After three hours, compound was added to each well in DMSO (1% final concentration). Cells were incubated for seven days (unless otherwise noted) before viability was assessed by the Alamar Blue assay. Raptinal (20 μM) was used as a dead control.

[3] = Hydrolytic stability studies; format: physicochemical; details: PBS; for Hydrolytic stability: percentage of prodrug remaining after 2 hours: pH 7.4, 37° C., HPLC; for half-life at 100 μM: 37° C.
Procedure: Hydrolytic Stability Studies. Compound (100 μM) was incubated at 37° C. in PBS at pH 7.4 (unless otherwise noted). At the indicated time point, an aliquot was collected and analyzed by HPLC. Compound peaks were integrated and compared to the integration at to calculate the percentage of prodrug remaining.

[4] = Blood-brain barrier permeability; details: mice; 25 mg/kg IV; 15 minutes
Procedure: (§1) Biodistribution and Toxicity Studies. […] Brain tissue and blood were collected from each mouse and immediately acidified to prevent prodrug degradation. The concentration of each compound in the serum (FIG. 4A) and brain (FIG. 4B) were quantified by LC-MS/MS.
(§2) CD-1 IGS mice were administered compound in 5% DMSO, 10% Tween-20, and 85% SPE-PCD in sterile water (30% w/v) at 25 mg/kg via lateral tail vein injection. Fifteen minutes post injection, mice were sacrificed and blood was collected by lacerating the right auricle with iris scissors. An 18 gauge angiocatheter was inserted through the left ventricle, and all residual circulatory volume was removed by perfusing 0.9% saline solution via an analog peristaltic pump. Blood samples were immediately centrifuged at 13,000 rcf for five minutes and the supernatant collected and acidified with 8.5% aqueous H3PO4. Brains were harvested from the cranial vault, acidified with 0.3% aqueous H3PO4 and flash frozen. Homogenized brain samples were centrifuged twice at 13,000 rcf for ten minutes and supernatant and tissue debris were separated. The resultant supernatant was analyzed, along with plasma, by LC-MS/MS to determine compound concentrations.

[5] = in vivo; details: CD-1 IGS, mouse, brain and serum, iv, 25 mg/kg
Procedure: as §1, §2

[6] = Solubility in IV formulations; format: physicochemical; details: for Solubility in 20/80 DMSO/PBS / Solubility in 15/7/5/73 DMSO/NMP/T20/20% SPE-βCD / Solubility in 15/10/75 DMSO/NMP/20% SPE-βCD: IV formulation; for Solubility in 20/80 DMSO/PBS: 5 mg/mL solution for 100 μL injection; for Solubility in 15/7/5/73 DMSO/NMP/T20/20% SPE-βCD / Solubility in 15/10/75 DMSO/NMP/20% SPE-βCD: 6.6 mg/mL solution for 200 μL injection
[7] = tested on: cancer cells; assay: Rapid cancer cell death phenotype; format: cell-based; details: relative to TMZ
Source text: FIG. 8A-C. Rapid Cancer Cell Death Phenotype.

[8] = tested on: E. coli WP2 uvrA pKM101 strain; assay: Ames test, E. coli WP2 uvrA pKM101; format: cell-based; details: 30 μM
Procedure: Next, we measured the mutagenicity of CPZ versus TMZ. TMZ and other DNA methylating chemotherapies are known mutagens, inducing G:C→A:T mutations due to erroneous recognition of O^6-methylguanine. […] CPZ and TMZ (at 30 μM) were also assessed in the E. coli WP2 uvrA pKM101 strain, which is considered one of the more sensitive Ames tester strains available.

[9] = cited from earlier work
[10] = Brain tissue binding; format: in vitro ADME; details: 10 uM, 1 h at 37 C in brain tissue homogenate
[11] = Hepatic metabolism: stability in mouse liver microsomes; format: in vitro ADME
[12] = Syngeneic subcutaneous model; format: in vivo; details: C57BL/6 mice, 1×10^6 cells; 50 mg/kg IV 1×/day over 5 days from day 5
Procedure: FIG. 10A-B. Syngeneic Subcutaneous Model (A, B). TABZ and TMZ in vivo: C57BL/6 mice were inoculated with 1×10^6 cells and treated xl/day over 5 days with either vehicle, TMZ, or TABZ (via IV, 50 mg/kg, starting on day 5).

[13] = pH 7.4, calculated from hydrolytic stability data, read-out: Half-life, pH 7.4

Row | Compound | O6-dG alkylation adducts, D54 [1] | Hydrolytic stability: percentage of prodrug remaining after 2 hours [3] [%] | half-life at 100 μM [3, 13] [h] | Kp at 15 min [5] | Solubility in 20/80 DMSO/PBS [6] | Solubility in 15/7/5/73 DMSO/NMP/T20/20% SPE-βCD [6] | Solubility in 15/10/75 DMSO/NMP/20% SPE-βCD [6] | Ames test revertant colonies, E. coli WP2 uvrA pKM101 [8] | Mutagenicity, E. coli WP2 uvrA pKM101 [8] | also measured
1 | C#CCn1nnc2c(Cl)ncn2c1=O [CPZ, 8-chloro-3-(prop-2-yn-1-yl)imidazo[5,1-d][1,2,3,5]tetrazin-4(3H)-one] | did not harbor measurable levels of the propargyl adduct | 30 | 1.2 | 1.2 ± 0.2 | Insoluble | Insoluble | Insoluble | no revertant colonies | non-mutagenic | IC50 ([2]; read-out: Average IC50 in MGMT (+) cell lines): 22 µM; IC50 ([2]; read-out: Average IC50 in MGMT (−) cell lines): 16 µM; Increase in brain distribution relative to TMZ [4]: > 10 fold; Solubility for IV administration [6]: insufficient solubility for IV administration; Speed of cell death induction [7]: induce cell death quickly relative to TMZ
2 | Cn1nnc2c(C(N)=O)ncn2c1=O [TMZ, temozolomide, reference compound] | dose-dependent increase in methyl adducts | 40 | ~1.5 | 0.08 ± 0.01 | Soluble* | Soluble | Soluble | 95/96 | mutagenic | Difference in IC50 values between MGMT-negative and positive cell lines ([2]; expanded GBM panel): > 6 fold; Half-life in vivo (human pharmacokinetics) ([9]; human patients): 1.5 to 2 h; Cerebral spinal fluid concentration as percentage of plasma concentration ([9]; humans): about 20%; half-life at 100 μM ([3]; pH 7, calculated from hydrolytic stability data, read-out: Half-life, pH 7): 2.97 ± 0.0833 h; half-life at 100 μM ([3]; pH 8, calculated from hydrolytic stability data, read-out: Half-life, pH 8): 0.483 ± 0.0167 h; Brain tissue binding, insoluble fraction, tissue homogenizer [10]: 40 ± 5%; Brain tissue binding, insoluble fraction, ultrasonication [10]: 30 ± 3%; Brain tissue binding, soluble fraction, tissue homogenizer [10]: 59 ± 5%; Brain tissue binding, soluble fraction, ultrasonication [10]: 66 ± 3%; Stability (2 h, with MLM) ([11]; percentage remaining relative to t0, mouse liver microsomes, SEM, n ≥ 2): 95 ± 1%; Stability (2 h, no MLM) ([11]; percentage remaining, microsomes replaced with PBS): 92 ± 0.2%; Tumor growth [12]: exacerbation of tumor growth
